{
  "source": "patent US11786534B2",
  "about": "(TAIHO PHARMACEUTICAL CO., LTD., priority 2019, dated 2023)",
  "key": {"human EGFR (WT)": {"target": "T1, human EGFR (WT) (Homo sapiens, UniProt P00533)", "T1 construct": "purchased Carna Biosciences Inc., Japan", "T1 sequence (P00533 25-1210)": "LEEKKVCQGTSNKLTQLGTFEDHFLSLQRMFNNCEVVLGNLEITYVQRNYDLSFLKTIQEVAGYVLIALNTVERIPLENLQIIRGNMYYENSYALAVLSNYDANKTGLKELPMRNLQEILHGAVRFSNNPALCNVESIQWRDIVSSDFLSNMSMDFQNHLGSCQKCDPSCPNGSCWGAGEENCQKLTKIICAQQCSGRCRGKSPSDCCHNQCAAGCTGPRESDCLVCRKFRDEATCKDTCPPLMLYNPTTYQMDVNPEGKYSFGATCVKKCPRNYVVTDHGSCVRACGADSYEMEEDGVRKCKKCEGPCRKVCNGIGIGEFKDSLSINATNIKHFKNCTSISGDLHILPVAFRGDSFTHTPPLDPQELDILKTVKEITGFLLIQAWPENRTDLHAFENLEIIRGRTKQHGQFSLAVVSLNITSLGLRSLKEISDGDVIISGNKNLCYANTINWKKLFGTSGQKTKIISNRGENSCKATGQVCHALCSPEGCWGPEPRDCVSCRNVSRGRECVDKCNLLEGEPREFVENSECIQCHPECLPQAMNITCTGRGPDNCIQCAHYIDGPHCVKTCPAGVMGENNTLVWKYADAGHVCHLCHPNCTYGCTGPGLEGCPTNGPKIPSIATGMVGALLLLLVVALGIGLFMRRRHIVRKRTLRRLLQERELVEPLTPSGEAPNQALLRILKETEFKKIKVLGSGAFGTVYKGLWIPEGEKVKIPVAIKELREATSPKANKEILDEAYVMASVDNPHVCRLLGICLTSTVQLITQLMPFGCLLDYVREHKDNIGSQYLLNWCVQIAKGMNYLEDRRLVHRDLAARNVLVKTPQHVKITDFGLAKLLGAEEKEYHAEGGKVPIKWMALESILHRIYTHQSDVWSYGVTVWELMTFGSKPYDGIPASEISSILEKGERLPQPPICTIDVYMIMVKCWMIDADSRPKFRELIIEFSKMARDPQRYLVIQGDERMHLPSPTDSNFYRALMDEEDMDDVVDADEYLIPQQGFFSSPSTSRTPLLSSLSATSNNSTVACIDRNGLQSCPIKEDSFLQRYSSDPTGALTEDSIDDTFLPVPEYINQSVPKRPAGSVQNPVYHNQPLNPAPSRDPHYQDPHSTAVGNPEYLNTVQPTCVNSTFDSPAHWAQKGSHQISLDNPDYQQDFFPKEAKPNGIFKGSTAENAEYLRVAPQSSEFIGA", "assay": "Inhibitory activity against EGFR (WT) kinase", "assay_type": "biochemical", "method_in_brief": "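Purified recombinant human wild-type EGFR kinase, with ATP at 1.5 μM final. Compound inhibition of kinase activity read out and fitted to give IC50 (nM).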"}, "human EGFR (L858R/C797S)": {"target": "T2, human EGFR (L858R/C797S) (Homo sapiens, UniProt P00533, C797S/L858R)", "T2 construct": "purchased SignalChem", "assay": "Inhibitory activity against EGFR (L858R/C797S) kinase", "assay_type": "biochemical", "conditions": "Test Example 1, Table 5; ATP 4 μM, 90 minutes", "method_in_brief": "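Purified recombinant human EGFR (C797S/L858R) kinase, final ATP 4 μM, 90-minute kinase reaction, otherwise per the EGFR (d746-750/C797S) protocol. IC50 (nM) determined from inhibition data.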"}, "Ba/F3-EGFR (WT)": {"target": "Ba/F3-EGFR (WT) (Homo sapiens, UniProt P00533)", "sequence (P00533 whole entry, stated change not applied)": "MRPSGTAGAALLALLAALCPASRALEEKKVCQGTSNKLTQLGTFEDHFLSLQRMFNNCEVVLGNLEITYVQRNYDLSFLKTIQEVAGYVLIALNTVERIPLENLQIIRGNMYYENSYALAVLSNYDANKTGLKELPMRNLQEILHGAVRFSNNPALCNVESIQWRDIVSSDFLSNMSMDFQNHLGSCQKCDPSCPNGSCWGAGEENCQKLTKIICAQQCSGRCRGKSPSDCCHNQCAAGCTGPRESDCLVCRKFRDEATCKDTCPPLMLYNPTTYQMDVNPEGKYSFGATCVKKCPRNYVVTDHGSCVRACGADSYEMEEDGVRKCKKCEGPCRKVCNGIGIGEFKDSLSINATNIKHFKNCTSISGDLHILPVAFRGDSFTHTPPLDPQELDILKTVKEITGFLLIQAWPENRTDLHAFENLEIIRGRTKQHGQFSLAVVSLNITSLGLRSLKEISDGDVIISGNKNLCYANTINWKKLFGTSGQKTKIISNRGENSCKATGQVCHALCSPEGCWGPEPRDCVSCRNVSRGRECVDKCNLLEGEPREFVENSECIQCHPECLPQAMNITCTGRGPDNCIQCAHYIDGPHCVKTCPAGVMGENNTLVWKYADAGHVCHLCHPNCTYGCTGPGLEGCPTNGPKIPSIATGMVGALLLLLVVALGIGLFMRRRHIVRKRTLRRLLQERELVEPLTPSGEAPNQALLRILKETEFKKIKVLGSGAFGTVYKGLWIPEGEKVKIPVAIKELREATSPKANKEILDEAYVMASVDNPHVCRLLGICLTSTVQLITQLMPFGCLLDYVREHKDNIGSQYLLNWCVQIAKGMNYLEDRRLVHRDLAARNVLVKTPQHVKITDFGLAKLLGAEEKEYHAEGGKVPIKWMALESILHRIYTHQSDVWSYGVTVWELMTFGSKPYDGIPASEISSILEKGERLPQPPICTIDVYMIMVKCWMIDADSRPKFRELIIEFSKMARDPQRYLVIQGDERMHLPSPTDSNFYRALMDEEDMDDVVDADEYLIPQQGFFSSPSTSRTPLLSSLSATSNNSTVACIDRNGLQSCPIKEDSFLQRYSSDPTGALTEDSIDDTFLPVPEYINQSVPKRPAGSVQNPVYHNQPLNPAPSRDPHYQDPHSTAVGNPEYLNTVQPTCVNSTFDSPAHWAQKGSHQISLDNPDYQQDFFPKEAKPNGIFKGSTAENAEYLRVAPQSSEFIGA", "assay": "Growth inhibition of cell line expressing wild-type EGFR", "assay_type": "cell-based, mouse", "conditions": "read-out: BaF3_EGFR (WT) IC50 value", "source_text": "(§1) Test for inhibitory activity against the growth of cell lines expressing wild-type and mutated EGFRs (in vitro)\n(§2) (1) Mouse cell line Ba/F3-EGFR (d746-750/T790M/C797S) transfected with and stably expressing EGFR (d746-750/T790M/C797S), mouse cell Ba/F3-EGFR (L858R/T790M/C797S) transfected with and stably expressing EGFR (L858R/T790M/C797S), and mouse cell line Ba/F3-EGFR (WT) transfected with and stably expressing wild-type EGFR were each suspended in RPMI-1640 cell culture medium (RPMI-1640, 10% FBS, 100 unit/ml penicillin, 0.1 mg/ml streptomycin). In the case of the mouse cell line Ba/F3-EGFR (WT), RPMI-1640 cell culture medium containing EGF at a final concentration of 50 ng/ml was used to suspend this cell line. It should be noted that the mouse cell line Ba/F3-EGFR (d746-750/T790M/C797S) transfected with and stably expressing EGFR (d746-750/T790M/C797S), the mouse cell line Ba/F3-EGFR (L858R/T790M/C797S) transfected with and stably expressing EGFR (L858R/T790M/C797S) and the mouse cell line Ba/F3-EGFR (WT) transfected with and stably expressing wild-type EGFR were prepared by using nucleotide sequences encoding the proteins of SEQ ID NOs: 1 and 2 in accordance with Test Example 1 in WO2018/079310, These cell suspensions were seeded in wells of 96-well flat -bottomed plates. The compounds of the present invention were dissolved in DMSO, and serial dilutions of these test compounds were prepared with DMSO (1000-fold of the final concentration). Each test compound solution in DMSO or DMSO alone was diluted with RPMI-1640 cell culture medium for each cell line, and this dilution was added to wells of the cell culture plate such that the final concentration of DMSO was 0.1%, followed by culture at 37° C. for 3 days in a 5% carbon dioxide gas-containing incubator. Before and after addition of each test compound solution in DMSO, the number of cells was counted using the CellTiter-Glo® system (Promega) on the basis of the protocol recommended by Promega.\n(§3) In each cell line, the rate of cell growth inhibition was calculated according to the equation shown below in wells to which each test compound was added at different concentrations. Moreover, the inhibition rate at each concentration was plotted for each test compound, and the concentration of each test compound required to give 50% cell survival rate, i.e., IC50 (nM) was determined by curve fitting software XLfit (IDBS).\n(§4) Cell survival rate (%)=T/C×100\n(§5) T: emission intensity in a well cultured for 3 days after addition of a test compound solution\n(§6) C: emission intensity in a well cultured for 3 days after addition of DMSO\n(§7) In accordance with the same procedures as shown in Test Example 2, the compounds of the present invention were tested for their inhibitory activity against the growth of the cell hoes expressing wild-type and mutated EGFRs."}, "[1]": {"target": "T3, human EGFR (d746-750/C797S) (Homo sapiens, UniProt P00533, C797S/DEL746-750)", "T3 construct": "purchased SignalChem", "T3 sequence (P00533 with tags, fused parts or gaps DEL746-750/C797S)": "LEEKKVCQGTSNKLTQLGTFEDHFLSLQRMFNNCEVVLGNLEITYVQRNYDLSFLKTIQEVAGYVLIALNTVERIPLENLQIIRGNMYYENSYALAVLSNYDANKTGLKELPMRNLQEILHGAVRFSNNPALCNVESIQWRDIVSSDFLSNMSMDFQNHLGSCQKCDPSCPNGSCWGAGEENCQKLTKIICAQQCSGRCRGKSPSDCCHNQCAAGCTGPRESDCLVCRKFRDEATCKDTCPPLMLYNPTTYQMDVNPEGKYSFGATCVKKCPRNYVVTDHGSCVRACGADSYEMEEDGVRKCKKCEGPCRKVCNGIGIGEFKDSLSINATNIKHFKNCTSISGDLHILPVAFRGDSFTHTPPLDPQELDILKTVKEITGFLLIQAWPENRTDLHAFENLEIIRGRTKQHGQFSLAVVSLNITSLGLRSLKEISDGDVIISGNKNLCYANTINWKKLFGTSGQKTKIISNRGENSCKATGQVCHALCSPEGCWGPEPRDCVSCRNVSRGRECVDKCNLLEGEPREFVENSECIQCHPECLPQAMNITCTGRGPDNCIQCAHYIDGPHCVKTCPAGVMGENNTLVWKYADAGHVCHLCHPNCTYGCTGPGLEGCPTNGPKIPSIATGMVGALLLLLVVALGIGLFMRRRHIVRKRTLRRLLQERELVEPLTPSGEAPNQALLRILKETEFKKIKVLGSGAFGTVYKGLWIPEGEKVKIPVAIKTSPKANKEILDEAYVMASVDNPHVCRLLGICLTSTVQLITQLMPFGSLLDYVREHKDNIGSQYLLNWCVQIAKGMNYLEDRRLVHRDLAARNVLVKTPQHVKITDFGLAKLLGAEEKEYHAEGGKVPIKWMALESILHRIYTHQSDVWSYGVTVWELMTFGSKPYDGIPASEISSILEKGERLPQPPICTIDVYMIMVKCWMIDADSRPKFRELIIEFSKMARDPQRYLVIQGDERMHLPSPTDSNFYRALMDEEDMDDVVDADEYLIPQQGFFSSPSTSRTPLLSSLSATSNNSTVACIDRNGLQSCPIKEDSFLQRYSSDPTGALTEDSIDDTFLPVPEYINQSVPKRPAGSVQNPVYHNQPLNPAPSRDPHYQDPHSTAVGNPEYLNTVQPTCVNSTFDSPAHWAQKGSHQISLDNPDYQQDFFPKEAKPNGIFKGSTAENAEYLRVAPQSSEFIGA", "assay": "Inhibitory activity against EGFR (d746-750/C797S) kinase", "assay_type": "biochemical", "method_in_brief": "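Recombinant human EGFR d746-750/C797S in 13.5 mM Tris pH 7.5 with 2 mM DTT and 0.009% Tween-20. Reaction ran 60 min with 14 μM ATP, 20 mM MgCl2 and 12.5 mM MnCl2, stopped by 40 mM EDTA. IC50 in nM.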"}, "[2]": {"target": "Ba/F3-EGFR (d746-750/T790M/C797S) (Homo sapiens, UniProt P00533, DEL746-750/T790M/C797S, cells depend on it)", "sequence (P00533 with tags, fused parts or gaps DEL746-750/T790M/C797S)": "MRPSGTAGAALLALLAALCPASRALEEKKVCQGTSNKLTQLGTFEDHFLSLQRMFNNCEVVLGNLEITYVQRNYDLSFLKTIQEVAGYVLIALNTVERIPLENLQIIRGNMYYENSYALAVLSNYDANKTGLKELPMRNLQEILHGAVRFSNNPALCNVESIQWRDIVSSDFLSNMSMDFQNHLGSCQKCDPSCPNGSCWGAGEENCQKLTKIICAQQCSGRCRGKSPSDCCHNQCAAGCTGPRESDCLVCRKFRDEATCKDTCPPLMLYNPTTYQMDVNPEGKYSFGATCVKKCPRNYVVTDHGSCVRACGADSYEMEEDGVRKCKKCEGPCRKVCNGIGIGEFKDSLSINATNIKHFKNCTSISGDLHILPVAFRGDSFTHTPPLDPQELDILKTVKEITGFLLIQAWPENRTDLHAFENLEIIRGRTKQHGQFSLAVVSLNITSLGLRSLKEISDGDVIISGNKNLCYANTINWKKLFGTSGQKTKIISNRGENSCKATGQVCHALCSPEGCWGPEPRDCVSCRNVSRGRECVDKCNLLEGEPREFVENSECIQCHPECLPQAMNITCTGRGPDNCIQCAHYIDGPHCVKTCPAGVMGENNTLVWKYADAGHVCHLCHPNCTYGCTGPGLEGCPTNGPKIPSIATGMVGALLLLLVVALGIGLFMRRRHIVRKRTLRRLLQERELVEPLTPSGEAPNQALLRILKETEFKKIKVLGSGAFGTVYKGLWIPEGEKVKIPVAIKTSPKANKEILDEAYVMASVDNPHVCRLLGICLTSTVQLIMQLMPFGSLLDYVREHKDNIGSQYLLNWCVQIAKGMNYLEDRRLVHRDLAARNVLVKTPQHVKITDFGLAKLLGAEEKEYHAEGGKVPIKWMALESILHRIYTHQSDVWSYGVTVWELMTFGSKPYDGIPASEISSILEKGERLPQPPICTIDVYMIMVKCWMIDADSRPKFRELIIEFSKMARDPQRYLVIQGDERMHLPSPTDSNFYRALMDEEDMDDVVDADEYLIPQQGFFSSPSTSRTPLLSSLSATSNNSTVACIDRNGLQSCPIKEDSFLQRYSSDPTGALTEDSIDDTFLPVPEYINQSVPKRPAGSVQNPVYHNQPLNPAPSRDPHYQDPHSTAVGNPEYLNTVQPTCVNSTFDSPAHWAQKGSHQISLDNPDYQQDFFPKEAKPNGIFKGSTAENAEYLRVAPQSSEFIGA", "assay": "Growth inhibition of cell line expressing EGFR (d746-750/T790M/C797S)", "assay_type": "cell-based, mouse", "conditions": "read-out: BaF3_EGFR (d746-750/T790M/C797S) IC50 value", "source_text": "as §1, §2, §3, §4, §5, §6, §7"}, "[3]": {"conditions": "Test Example 1, Table 6, ATP 1.5 μM"}, "[4]": {"conditions": "Test Example 4, Table 13, same procedures as Test Example 2"}, "[5]": {"conditions": "Test Example 1, Table 4, ATP 14 μM, 60 minutes"}, "[6]": {"conditions": "Test Example 2, Table 7, culture 3 days, EGF 50 ng/ml, CellTiter-Glo"}, "[7]": {"conditions": "Test Example 2, Table 7, culture 3 days, CellTiter-Glo"}},
  "note": "Read-outs that look alike come from different tables or passages of the source.",
  "data": [
    {"smiles": "C#Cc1c(-c2cnc3ccccc3c2)c2c(N)ncnc2n1C12CCC(NC(=O)c3ccnn3C3CC3)(CC1)C2", "note": "[Example 20, N-(4-(4-Amino-6-ethynyl-5-(quinolin-3-yl)-7H-pyrrolo[2,3-d]pyrimidin-7-yl)bicyclo-[2.2.1]heptan-1-yl)-1-cyclopropyl-1H-pyrazole-5-carboxamide]", "values": [
      {"measurement": "IC50", "setting": "human EGFR (WT); [3]", "result": 2.1, "unit": "nM"},
      {"measurement": "IC50", "setting": "human EGFR (L858R/C797S)", "result": 1.2, "unit": "nM"},
      {"measurement": "GI50", "setting": "Ba/F3-EGFR (WT); [4]", "result": 2650, "unit": "nM"},
      {"measurement": "IC50", "setting": "[1]; [5]", "result": 0.68, "unit": "nM"},
      {"measurement": "GI50", "setting": "[2]; [4]", "result": 31, "unit": "nM"}
    ]},
    {"smiles": "C#Cc1c(-c2cnc3ccccc3c2)c2c(N)ncnc2n1C12CCC(NC(=O)c3ccncc3)(CC1)C2", "note": "[Example 43]", "values": [
      {"measurement": "IC50", "setting": "human EGFR (WT); [3]", "result": 1.7, "unit": "nM"},
      {"measurement": "IC50", "setting": "human EGFR (L858R/C797S)", "result": 0.49, "unit": "nM"},
      {"measurement": "GI50", "setting": "Ba/F3-EGFR (WT); [6]", "result": 3290, "unit": "nM"},
      {"measurement": "IC50", "setting": "[1]; [5]", "result": 0.73, "unit": "nM"},
      {"measurement": "GI50", "setting": "[2]; [7]", "result": 57, "unit": "nM"}
    ]},
    {"smiles": "C#Cc1c(-c2cnc3ccccc3c2)c2c(N)ncnc2n1C12CCC(NC(=O)c3cccnn3)(CC1)C2", "note": "[Example 49]", "values": [
      {"measurement": "IC50", "setting": "human EGFR (WT); [3]", "result": 0.86, "unit": "nM"},
      {"measurement": "IC50", "setting": "human EGFR (L858R/C797S)", "result": 0.63, "unit": "nM"},
      {"measurement": "GI50", "setting": "Ba/F3-EGFR (WT); [6]", "result": 3070, "unit": "nM"},
      {"measurement": "IC50", "setting": "[1]; [5]", "result": 0.49, "unit": "nM"},
      {"measurement": "GI50", "setting": "[2]; [7]", "result": 19, "unit": "nM"}
    ]},
    {"smiles": "C#Cc1c(-c2cnc3ccccc3c2)c2c(N)ncnc2n1C12CCC(NC(=O)[C@@H]3CN(C)CCO3)(CC1)C2", "note": "[Example 63, (S)-N-(4-(4-Amino-6-ethynyl-5-(quinolin-3-yl)-7H-pyrrolo[2,3-d]pyrimidin-7-yl) -bicyclo[2.2.1]heptan-1-yl)-4-methylmorpholine-2-carboxamide]", "values": [
      {"measurement": "IC50", "setting": "human EGFR (WT); Test Example 3, Table 12; same procedures as 5) in Test Example 1", "result": 2.8, "unit": "nM"},
      {"measurement": "GI50", "setting": "Ba/F3-EGFR (WT); [4]", "result": 2990, "unit": "nM"},
      {"measurement": "IC50", "setting": "[1]; Test Example 3, Table 10; same procedures as 3) in Test Example 1", "result": 0.51, "unit": "nM"},
      {"measurement": "GI50", "setting": "[2]; [4]", "result": 73, "unit": "nM"}
    ]},
    {"smiles": "C#Cc1c(-c2cnc3ccccc3c2)c2c(N)ncnc2n1C12CCC(NC(=O)c3cnns3)(CC1)C2", "note": "[Example 18, N-(4-(4-Amino-6-ethynyl-5-(quinolin-3-yl)-7H-pyrrolo[2,3-d]pyrimidin-7-yl)bicyclo-[2.2.1]heptan-1-yl)-1,2,3-thiadiazole-5-carboxamide]", "values": [
      {"measurement": "IC50", "setting": "human EGFR (WT); [3]", "result": 1.4, "unit": "nM"},
      {"measurement": "IC50", "setting": "human EGFR (L858R/C797S)", "result": 0.67, "unit": "nM"},
      {"measurement": "GI50", "setting": "Ba/F3-EGFR (WT); [4]", "result": 2480, "unit": "nM"},
      {"measurement": "IC50", "setting": "[1]; [5]", "result": 0.78, "unit": "nM"},
      {"measurement": "GI50", "setting": "[2]; [4]", "result": 124, "unit": "nM"}
    ]},
    {"smiles": "C#Cc1c(-c2cnc3ccccc3c2)c2c(N)ncnc2n1C12CCC(NC(C)=O)(CC1)C2", "note": "[Example 39, N-(4-(4-Amino-6-ethynyl-5-(quinolin-3-yl)-7H-pyrrolo[2,3-d]pyrimidin-7-yl)-bicyclo-[2.2.1]heptan-1-yl)acetamide]", "values": [
      {"measurement": "IC50", "setting": "human EGFR (WT); [3]", "result": 1.5, "unit": "nM"},
      {"measurement": "IC50", "setting": "human EGFR (L858R/C797S)", "result": 1.4, "unit": "nM"},
      {"measurement": "GI50", "setting": "Ba/F3-EGFR (WT); [4]", "result": 2360, "unit": "nM"},
      {"measurement": "IC50", "setting": "[1]; [5]", "result": 0.75, "unit": "nM"},
      {"measurement": "GI50", "setting": "[2]; [4]", "result": 98, "unit": "nM"}
    ]},
    {"smiles": "C#Cc1c(-c2cnc3ccccc3c2)c2c(N)ncnc2n1C12CCC(NC(=O)c3ccnnc3)(CC1)C2", "note": "[Example 3, N-(4-(4-Amino-6-ethynyl-5-(quinolin-3-yl)-7H-pyrrolo[2,3-d]pyrimidin-7-yl)bicyclo-[2.2.1]heptan-1-yl)pyridazine-4-carboxamide]", "values": [
      {"measurement": "IC50", "setting": "human EGFR (WT); [3]", "result": 0.45, "unit": "nM"},
      {"measurement": "IC50", "setting": "human EGFR (L858R/C797S)", "result": 0.37, "unit": "nM"},
      {"measurement": "GI50", "setting": "Ba/F3-EGFR (WT); [6]", "result": 3330, "unit": "nM"},
      {"measurement": "IC50", "setting": "[1]; [5]", "result": "< 0.3", "unit": "nM"},
      {"measurement": "GI50", "setting": "[2]; [7]", "result": 56, "unit": "nM"}
    ]},
    {"smiles": "C#Cc1c(-c2cnc3ccccc3c2)c2c(N)ncnc2n1C12CCC(NC(=O)c3ccno3)(CC1)C2", "note": "[Example 44]", "values": [
      {"measurement": "IC50", "setting": "human EGFR (WT); [3]", "result": 0.8, "unit": "nM"},
      {"measurement": "IC50", "setting": "human EGFR (L858R/C797S)", "result": 0.94, "unit": "nM"},
      {"measurement": "GI50", "setting": "Ba/F3-EGFR (WT); [4]", "result": 2260, "unit": "nM"},
      {"measurement": "IC50", "setting": "[1]; [5]", "result": 0.73, "unit": "nM"},
      {"measurement": "GI50", "setting": "[2]; [4]", "result": 30, "unit": "nM"}
    ]},
    {"smiles": "C#Cc1c(-c2cnc3ccccc3c2)c2c(N)ncnc2n1C12CCC(NC(=O)c3ncco3)(CC1)C2", "note": "[Example 46]", "values": [
      {"measurement": "IC50", "setting": "human EGFR (WT); [3]", "result": 0.79, "unit": "nM"},
      {"measurement": "IC50", "setting": "human EGFR (L858R/C797S)", "result": 0.43, "unit": "nM"},
      {"measurement": "GI50", "setting": "Ba/F3-EGFR (WT); [6]", "result": 2410, "unit": "nM"},
      {"measurement": "IC50", "setting": "[1]; [5]", "result": 0.43, "unit": "nM"},
      {"measurement": "GI50", "setting": "[2]; [7]", "result": 19, "unit": "nM"}
    ]}
  ]
}
